Results on 14 compounds are retold here after patent publication US4234581A, “Thieno[2,3-d]oxazines” (Mead Johnson & Company, priority 1979, dated 1980).

In data set [1] the test system is passively sensitized rat peritoneal mast cells. Nature of the data set: antagonism of antigen-induced histamine release from passively sensitized rat peritoneal mast cells. It counts as cell-based. The conditions noted are these: in vitro; for IC50: Mast cell, egg albumin antigen challenge. The source says:
The method employed is similar to that described by Kusner, et al., Journal of Pharmacology and Experimental Therapeutics 184, 41-46 (1973). The test involves isolation of mast cells from the rat by lavage of the peritoneal cavity and isolation of the cellular material from the lavage fluid. The cells are sensitized by shaking in antiserum from rats sensitized as described above with respect to the passive cutaneous anaphylaxis test. The sensitized cells are then exposed to the egg albumin antigen and the release of histamine from the cells is measured by an automated fluorometric method. The inhibition of histamine release by the presence of a test compound during challenge of the sensitized cells is a measure of the activity of the test compound. Dose response curves are prepared employing various concentrations of the test substance and the concentration which inhibits histamine release by 50% (IC50) is determined by interpolation.

In data set [2] the test system is passive cutaneous anaphylaxis reaction (PCA) in the rat. Nature of the data set: passive cutaneous anaphylaxis reaction (PCA) in the rat. It counts as in vivo. Here is the method:
Activity of test compounds in the passive cutaneous anaphylaxis reaction (PCA) in the rat has been shown in the prior art to correlate with the utility of active compounds in the treatment of immediate hypersensitivity conditions such as asthma. Rat reaginic antiserum is prepared substantially according to the method of Mota, Immunology 7, 681-699 (1964) employing male Sprague-Dawley (Carworth Farms) or Wistar (Harlan) rats weighing 100-175 g. which are injected intramuscularly with a solution of egg albumin in saline at a dose of 10 mg. per kg. and intraperitoneally with 2×10^10 Bordetella pertussis organisms. Twelve days after injection, the serum is collected and the antibody titer is determined. The sera are pooled which contain sufficient antibody to cause a 10 mm. spot in the dorsal skin of the rat in the PCA test after dilution 10 fold. The highest dilution of antiserum capable of inducing PCA in the rat 48 to 72 hrs. after injection is normally in the range of 50-80. The selected reaginic anti-sera are stored frozen until use.
For carrying out the test, groups of 5 to 10 male Sprague-Dawley (Carworth Farms) rats, each rat weighing 100-150 g., are used. Forty-eight hours prior to the test, the animals are passively sensitized by intradermal injection of 0.1 ml. of diluted antiserum at various locations on the shaved skin of the back. A dilution of antiserum is used so that a spot following challenge of 20-25 mm. in diameter is obtained. […] A latent period of 48 hrs. is usually allowed before the animals are challenged. According to the usual screening procedure, 15 min. prior to challenge the test drug is administered either by intraperitoneal injection, intravenous injection, or orally by gavage. Challenge involves an intravenous injection of a dose of 25 mg./kg. of egg albumin and 25 mg./kg. of Evans' blue dye in saline. The dye serves simply as a marker. The response of the antigen challenge in the localities on the skin which have been previously sensitized results in increased capillary permeability at the sensitized site and leakage of the blue dye into the area surrounding the sensitized site. The PCA response is scored by measuring the mean spot diameter on the excised and reversed skin 20-30 min. after challange. In each experiment a group of control animals receiving no drug is employed. The percent inhibition of the PCA is calculated by determining the mean diameters of the spots in the control and treated animals and computing the difference between the squares of the mean diameters of the control animals and the treated animals and expressing this difference as a percentage of the square of the mean diameter of the control animals. Results are expressed as percent inhibition.
Rats may be injected intradermally with 0.1 ml. of a solution containing 1 mg./ml. histamine 10 min. prior to sacrificing. This permits a determination of whether the test compound is exerting an antihistaminic effect on the end organ rather than interfering with mediator release from the mast cells in inhibiting the PCA.
Various doses of test compound in parallel experiments are employed when a dose response curve is to be constructed for quantitative comparison of potencies among active compounds. The ID50, the dose at which 50% inhibition of the PCA occurs, is determined by interpolation. In other modifications, various time intervals are allowed between drug treatment and challenge to ascertain the duration of drug effect.

The subject of data set [3] is immunologically induced bronchoconstriction. Put plainly: allergic respiratory model in the rat (immunologically induced bronchoconstriction). It counts as in vivo. The conditions noted are these: for ED50: 0.25 h, intraduodenal 15 min. prior to egg albumin challenge, half maximal response (ID1/2 max.), table titled Oral.
The nature of data set [4]: Acute oral toxicity in the rat. Conditions: in vivo. The text has this:
| *Acute oral toxicity in the rat.

The mark [5] stands for this setting: range for Procedures 2, 3 and 36, read-out: IC50, inhibition of histamine release.
[6] abbreviates: 0.25 h, oral, rat, drug 15 min. prior to challenge, 50% inhibition of PCA, read-out: PCA Response (ID50, mg./kg.).
The mark [7] stands for this setting: Rat2, oral, rat, 2 hr. interval between drug dosage and challenge, read-out: PCA Response (ID50, mg./kg.).

Structures can show the parent of a compound that is named as a salt. Where two headings read alike, the source gives them in different places.

The IC50 is the concentration that gives 50% inhibition. `O=C(O)c1cc(=O)c2c(OCC(O)COc3cccc4oc(C(=O)O)cc(=O)c34)cccc2o1` [Cromolyn sodium, reference compound]: the IC50 in data set [1] (read-out: IC50, inhibition of histamine release) was 1000 nM. In data set [2] (intravenous, simultaneously with the antigen, rat, read-out: ID50 in the rat PCA test), the ED50 is about 1 mg/kg. Also, in data set [2] (oral, rat), the “activity on oral administration in PCA test” value was “inactive”. Besides, the “activity on oral administration in allergic respiratory test” value in data set [3] (oral) is “inactive”.
For orientation: LD50 means the dose expected to kill half of the subjects tested. A lower LD50 goes with a more toxic substance. In the case of `CCOC(=O)c1nc2sc3c(c2c(=O)[nH]1)CCCC3` [Procedure 2, ETHYL 3,4,5,6,7,8-HEXAHYDRO-4-OXOBENZOTHIENO[2,3-d]PYRIMIDINE-2-CARBOXYLATE], the IC50 in data set [1] (setting [5]) fell in the range of 300 to 800 nM. Besides, the “potency in histamine release test relative to cromolyn sodium” value in data set [1] was “substantially more potent than cromolyn sodium”. For the same compound, the values for the ED50 in data set [2] (setting [6]) and in data set [3] were 15.4 mg/kg and 3.8 mg/kg, respectively. The same compound had an LD50 in data set [4] of over 3160 mg/kg.
On to `O=C(O)c1nc2sc3c(c2c(=O)[nH]1)CCCC3` [Procedure 3, 3,4,5,6,7,8-HEXAHYDRO-4-OXOBENZOTHIENO[2,3-d]-PYRIMIDINE-2-CARBOXYLIC ACID DISODIUM SALT DIHYDRATE], for which, in data set [1] (setting [5]), the IC50 was 300 to 800 nM. The “potency in histamine release test relative to cromolyn sodium” value in data set [1] is on record as “substantially more potent than cromolyn sodium”.
On to `CCOC(=O)c1nc2sc(CC)c(C)c2c(=O)[nH]1` [Procedure 27, ETHYL 6-ETHYL-3,4-DIHYDRO-5-METHYL-4-OXOTHIENO[2,3-d]PYRIMIDINE-2-CARBOXYLATE], for which the ED50 in data set [2] (setting [6]) was found to be 11.4 mg/kg.
Turning to `CCOC(=O)c1nc2sc(CC(C)C)c(C)c2c(=O)[nH]1` [Procedure 28, ETHYL 3,4-DIHYDRO-5-METHYL-6-(2-METHYLPROPYL)-4-OXOTHIENO[2,3-d]PYRIMIDINE-2-CARBOXYLATE], the ED50 in data set [2] (setting [6]) was under 5 mg/kg.
As to `CCOC(=O)c1nc2sc(CC)cc2c(=O)[nH]1` [Procedure 29, ETHYL 6-ETHYL-3,4-DIHYDRO-4-OXOTHIENO[2,3-d]PYRIMIDINE-2-CARBOXYLATE], the ED50 came out at 3.1 mg/kg in data set [2] (setting [6]) and 1 mg/kg in data set [3]. This compound yielded an LD50 in data set [4] of 1600 to 5000 mg/kg.
For `CCCCCCc1sc2nc(C(=O)O)[nH]c(=O)c2c1C` [Procedure 36, 6-HEXYL-3,4-DIHYDRO-5-METHYL-4-OXOTHIENO[2,3-d]PYRIMIDINE-2-CARBOXYLIC ACID DISODIUM SALT HYDRATE], the IC50 in data set [1] (setting [5]) is 300 to 800 nM. Moreover, the “potency in histamine release test relative to cromolyn sodium” value in data set [1] was “substantially more potent than cromolyn sodium”. Also, the ED50 in data set [2] (setting [6]) turned out to be 15 mg/kg.
As for `Cc1c(CC(C)C)sc2nc(C(=O)O)[nH]c(=O)c12` [Procedure 43, 3,4-DIHYDRO-5-METHYL-6-(2-METHYLPROPYL)-4-OXOTHIENO[2,3-d]PYRIMIDINE-2-CARBOXYLIC ACID DISODUM SALT SESQUIHYDRATE], in data set [2] (setting [6]), the ED50 was found to be 6.7 mg/kg.
Still for that read-out and setting: under `CCc1cc2c(=O)[nH]c(C(=O)O)nc2s1` [Procedure 44, 6-ETHYL-3,4-DIHYDRO-4-OXOTHIENO[2,3-d]PYRIMIDINE-2-ARBOXYLIC ACID DISODIUM SALT DIHYDRATE] stands 13 mg/kg.
Turning to `Cc1c(CC(C)C)sc2nc(CO)[nH]c(=O)c12` [Procedure 53, 2-(HYDROXYMETHYL)-5-METHYL-6-(2-METHYLPROPYL)THIENO[2,3-d]PYRIMIDINE-4-(3H)-ONE], the ED50 in data set [2] (setting [7]) turned out to be 28 mg/kg.
The same measure, in the same setting: under `O=c1[nH]c(CO)nc2sc3c(c12)CCCC3` [Procedure 55, 5,6,7,8-TETRAHYDRO-2-(HYDROXYMETHYL)BENZOTHIENO[2,3-d]-4(3H)-PYRIMIDINONE] stands 34 mg/kg.
With `CCCCCCc1sc2nc(CO)[nH]c(=O)c2c1C` [Procedure 56, 6-HEXYL-2-(HYDROXYMETHYL)-5-METHYLTHIENO[2,3-d]PYRIMIDINE-4-(3H)-ONE], the ED50 in data set [2] (setting [6]) is 28 mg/kg.
In the case of `CCOC(=O)C(=O)Nc1sccc1C(N)=O` [Procedure 83, Ethyl N-[3-(Aminocarbonyl)thien-2-yl]oxamate], in data set [2] (oral, rat, read-out: oral ED50 in the rat PCA test for antiallergic activity), the ED50 was 4.5 mg/kg.
Consider `Cc1c(CC(C)C)sc2nc(C(=O)O)[nH]c(=O)c12` [Procedure 97, 3,4-Dihydro-5-methyl-6-(2-methylpropyl)-4-oxothieno[2,3-d]pyrimidine-2-carboxylic Acid Dipotassium Salt], for which the ED50 worked out at 0.14 mg/kg in data set [2] (Rattus norvegicus, intravenous, rats, read-out: ID50 in the PCA test, intravenous) and 2.7 mg/kg in data set [2] (Rattus norvegicus, oral, rats, read-out: ID50 in the PCA test, oral).
